Measurements: article PMC5462101 (Future medicinal chemistry, 2015)

Tests used:
soybean lipoxygenase = biological target: T1, soybean lipoxygenase (Glycine max, UniProt P08170); assay: Inhibition of soybean lipoxygenase; format: biochemical; details: for IC50: sodium linoleate 0.1 mM, read-out: Lipoxygenase inhibitory activity (IC50); for inhibition at 100 µM: compound at 100 µM, read-out: Lipoxygenase inhibitory activity (% at 100 µM)
T1 construct: purchased Sigma
T1 sequence (P08170 1-839): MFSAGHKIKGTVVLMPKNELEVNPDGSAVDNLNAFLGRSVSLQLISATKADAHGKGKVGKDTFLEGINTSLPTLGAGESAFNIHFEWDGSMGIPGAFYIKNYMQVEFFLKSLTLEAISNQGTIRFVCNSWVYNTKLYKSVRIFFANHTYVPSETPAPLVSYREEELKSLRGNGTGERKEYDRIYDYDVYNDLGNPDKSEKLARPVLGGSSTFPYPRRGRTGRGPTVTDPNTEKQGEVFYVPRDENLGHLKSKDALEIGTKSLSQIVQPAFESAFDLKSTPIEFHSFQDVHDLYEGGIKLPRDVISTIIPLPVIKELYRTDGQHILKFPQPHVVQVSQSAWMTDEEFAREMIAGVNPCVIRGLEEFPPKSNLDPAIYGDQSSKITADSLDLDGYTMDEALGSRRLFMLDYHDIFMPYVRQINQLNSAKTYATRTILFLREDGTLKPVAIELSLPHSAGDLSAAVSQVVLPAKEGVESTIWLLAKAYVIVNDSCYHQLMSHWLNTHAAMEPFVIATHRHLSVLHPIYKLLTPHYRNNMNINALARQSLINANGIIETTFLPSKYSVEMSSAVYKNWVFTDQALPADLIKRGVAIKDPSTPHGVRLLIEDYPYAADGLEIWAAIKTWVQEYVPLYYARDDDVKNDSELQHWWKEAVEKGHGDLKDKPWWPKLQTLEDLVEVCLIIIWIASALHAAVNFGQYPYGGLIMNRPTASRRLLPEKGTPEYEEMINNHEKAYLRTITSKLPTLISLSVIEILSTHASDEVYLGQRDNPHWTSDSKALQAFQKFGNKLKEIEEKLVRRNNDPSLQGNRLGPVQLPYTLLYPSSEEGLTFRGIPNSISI
Experimental: The substituted pteridines prepared were assayed for inhibition of soybean lipoxygenase (Table 1) (Supplementary Information). Many studies have used readily obtainable soybean lipoxygenase, which is a homologue of mammalian lipoxygenase and well examined. The availability of soybean LOX and its well-characterized crystal structure led to its use in this study.
Determination of soybean lipoxygenase inhibition
A solution in DMSO of each compound to be tested was incubated at room temperature with sodium linoleate (0.1 mM) and a solution of soybean lipoxygenase (EC 1.13.11.12) (1:9 x 10^4 w/v in saline, 0.2 mL, Sigma). The conversion of sodium linoleate to 13-hydroperoxylinoleic acid was monitored by observation at 234 nm and compared with the value of appropriate standard inhibitor (Table 1).
(§1) IC50 determinations. OriginPro 8 was used to determine IC50 values from the sigmoidal line fitted to a graph of log[concentration] against the average percentage inhibition from two independent experiments, with at least 6 different concentrations. The SEM is the calculated standard error in the IC50 value of the fitted line.

[1] = Competition with DMSO for hydroxyl radicals; details: compound at 100 µM, Fe3+/ascorbic acid, DMSO 33 mM
Experimental: Competition of the novel pteridine derivatives with dimethyl sulfoxide for hydroxyl radicals was measured. […] The majority of the derivatives were excellent scavengers of hydroxyl radicals with activity higher than the reference compound 6-hydroxy-2,5,7,8-tetramethylchroman-2-carboxylic acid (Trolox).
Competition of pteridine derivatives with DMSO for hydroxyl radicals
Hydroxyl radicals generated by the Fe^3+/ascorbic acid system were detected by determination of formaldehyde produced from the oxidation of DMSO, according to the procedure of Nash. The reaction mixture comprised ethylenediaminetetracetic acid (EDTA) (0.1 mM), Fe^3+ (167 μM), DMSO (33 mM) in phosphate buffer (50 mM, pH 7.4), ascorbic acid (10 mM) and the compound to be tested at 100 µM. After incubation at 37 °C for 30 min the mixture was quenched with aqueous trichloroacetic acid (17% w/v) (Table 2) and the percentage competition of the tested compounds with DMSO for hydroxyl radicals was determined (Table 2).

[2] = Reducing ability in DPPH assay; details: compound 100 μM
Experimental: Previous work has shown that pterins, their dihydro- and their tetrahydro-derivatives can each be antioxidants or pro-oxidants, depending on the particular conditions. In the present study, several assays were used to assess in vitro antioxidant activity in order to obtain representative information; each method involves the generation of a different radical.
Determination of reducing activity using 1,1-diphenyl-2-picrylhydrazyl radical (DPPH)
To a solution of DPPH in absolute ethanol was added an equal volume of the compound to be tested dissolved in DMSO (20 µL). From a stock solution (10 mM) was prepared a final solution of 100 µM for evaluation of the compounds. The absorbance at 517 nm was recorded after 20 and 60 min at room temperature (Table 2).

[3] = Inhibition of linoleic acid peroxidation (AAPH); details: linoleic acid peroxidation initiated by AAPH, 37 °C, pH 7.4
From the text: Azo compounds that generate free radicals through spontaneous thermal decomposition are useful for in vitro studies of free radical production. The water-soluble AAPH has been extensively used as a clean and controllable source of thermally produced alkylperoxyl free radicals. […] Evidently, the presence of 6,7-dimethyl groups on the pteridine ring greatly enhances protection against lipid peroxidation; the nature of the alkyl group and ring size on the 2-substituent has some, but much less, effect. […] The role of lipophilicity (as assessed from calculated clogP values; Table 1) is not clear, but substituent bulk plays a significant role.
Inhibition of linoleic acid peroxidation
Production of conjugated diene hydroperoxide by oxidation of linoleic acid in an aqueous dispersion was monitored at 234 nm. 2,2’-Azobis(2-amidinopropane) dihydrochloride (AAPH) was used as a free radical initiator. This assay was used to follow oxidative changes and to determine the inhibition of the peroxidation of sodium linoleate by each tested compound. A dispersion of sodium linoleate (16 mM, 10 μL) was added to the UV cuvette containing phosphate buffer (0.05 M, 0.93 mL) at pH 7.4 and kept in a thermostat at 37 °C. The oxidation reaction was initiated at 37 °C under air by the addition of AAPH solution (40 mM, 50 μL). Oxidation was carried out in the presence of aliquots (10 μL) of the tested compound. In the assay without antioxidant, lipid oxidation was measured in the presence of DMSO (10 μL). The rate of oxidation at 37 °C was monitored by recording the increase in absorption at 234 nm caused by conjugated diene hydroperoxide formation (Table 2).
as §1

rat model of colitis = assay: Acetic acid-induced colitis in the rat; format: in vivo, Fisher 344 rats; details: 0.01 mmol/kg intrarectally, 4% acetic acid, assessed after 48 h
Experimental: LOX has also been associated with inflammation and ulcerative colitis. In the present study, a model for colitis involving intracolonic administration of aqueous 4% acetic acid in the rat was used, leading to acute inflammatory reaction. Treated rats presented partial to diffuse petechial bleeding, single erosion and limited ulceration indicating an overall healing effect of the compounds. Substituted pteridines presenting a satisfactory combination of activities 5a, 18a, 18d and 18f were tested using this in vivo model characterized by diffuse exfoliated mucosa as well as multiple and extended erosion and ulcers of the colon (Table 3). No mortality was encountered.
Fisher 344 rats (150-200 g) were housed in wire-mesh cages, given standard laboratory chow and tap water ad libitum and acclimatized for one week before experiments. Rats were randomly assigned to experimental groups. All in vivo experiments conform to the law for the protection of experimental animals (Republic of Greece) and are registered at the Veterinary Administration of the Republic of Greece in accordance with recognized guidelines on animal experimentation including Directive 2010/63/EU.
Induction of colitis
Rats were anesthetized using pentobarbital (50 mg/kg ip) prior to administration with 1 mL of either vehicle (0.9% w/v saline) or the compound under study at doses 0.01mmol/kg intrarectally via a polyethylene cannula (fitted to a 1 mL syringe) with the tip inserted approximately 8 cm into the anus. Following 30 min pretreatment, 1 ml of 4% acetic acid was introduced into the colon intrarectally and, after exposure for 60 s, the excess fluid was withdrawn. The luminal content was then expelled by instillation of air (10 mL), the ligature was removed and the abdomen was sutured. Both groups of rats were allowed to recover with food and water and the resulting injury was assessed after 48 h. The experiment was conducted using two groups, each containing 3 animals.
Assessment of colonic damage. Rats were weighed, inspected for the presence of diarrhea and sacrificed using diethyl ether. The colons were excised and opened longitudinally, rinsed with cold saline, pinned out and observed under a dissecting microscope. Colonic damage was scored using the system of MacPherson and Pfeiffer: 0 – normal appearance, 1- hyperaemia, 2 – patchy petechial bleeding, 3 – diffuse petechial bleeding, 4 – partial exfoliated mucosa or single erosion or ulceration, 5 – diffuse exfoliated mucosa or multiple erosions or ulceration. The presence or absence of adhesions between the colon and the surrounding tissues was recorded. Scoring of the colonic damage (Table 4) was carried out by an observer unaware of the treatment.

Row | Structure (SMILES) | IC50 (soybean lipoxygenase) [µM] | Hydroxyl radicals scavenged (%) [1] [%] | RA (%) 100μM 20 min [2] [%] | RA (%) 100μM 60 min [2] [%] | IC50 [3] [µM] | inhibition at 100 µM (soybean lipoxygenase) [%] | melting point [°C] | Change in body weight (%) (rat model of colitis) | IC50 ([3]; listed as 24) [µM]
1 | CN1CCN(c2nc(N3CCN(C)CC3)c3nccnc3n2)CC1 [Compound 9] | 5 ± 0.1 | 96 | 8 | 14 | 0.73 ± 0.2 |  |  |  | 
2 | CN1CCN(c2nc(NCCc3ccccc3)c3nccnc3n2)CC1 [Compound 18c] |  | 97 | 11 | 18 | 10 ± 0.1 | 22.5 ± 0.2 | 127 to 128 |  | 
3 | CN1CCN(c2nc(NCc3ccco3)c3nccnc3n2)CC1 [Compound 18e] |  | 94 | 10 | 17 | 0.33 ± 0.03 | 24 ± 0.3 | 174 to 175 |  | 
4 | Cc1nc2nc(N3CCN(C)CC3)nc(NCc3cccs3)c2nc1C [Compound 18g] | 88.5 ± 1.2 | 100 | 12 | 12 | 0.1 ± 0.01 |  | 89 to 90 |  | 
5 | Cc1c(C)c2c(c(C)c1O)CCC(C)(C(=O)O)O2 (centres unmarked) [Trolox, 6-hydroxy-2,5,7,8-tetramethylchroman-2-carboxylic acid, reference compound] |  | 73 |  |  | 55.5 |  |  |  | 
6 | CN1CCN(c2nc(N)c3nccnc3n2)CC1 [Compound 5a, 2-(4-methylpiperazin-1-yl) pteridin-4-amine] |  | 98 | 15 | 14 | 41 ± 1.1 | 37.5 ± 0.1 |  | -1.1 | 
7 | CN1CCN(c2nc(NCc3cccs3)c3nonc3n2)CC1 [Compound 23] | 74 ± 3.5 | 94 | 16 | 18 | 0.32 ± 0.02 |  |  |  | ~0.3
8 | CCN1CCNc2nc(N3CCN(C)CC3)nc(N3CCN(C)CC3)c21 [Compound 10a] | 5 ± 0.1 | 96 | 79 | 81 | 15 ± 0.2 |  | 139 to 140 |  | 
9 | CCN1CCN(CC)c2c1nc(N1CCN(C)CC1)nc2N1CCN(C)CC1 [Compound 10b] | 55 ± 0.2 | 98 | 98 | 97 | 10 ± 0.43 |  |  |  | 
10 | Cc1nc2nc(N3CCN(C)CC3)nc(N)c2nc1C [Compound 5b] | 100 ± 0.3 | 94 | 0 | 13 | 40 ± 0.8 |  |  |  | 
11 | CN1CCCN(c2nc(NCc3cccs3)c3nccnc3n2)CC1 [Compound 20b] | 62.5 ± 0.5 | 94 | 15 | 19 | 41 ± 0.3 |  | 130 to 131 |  | 
12 | OC1CCCN(c2nc(N3CCCC(O)C3)c3nccnc3n2)C1 (centres unmarked) [Compound 13] | 60 ± 0.3 | 95 | 6 | 13 | 0.33 ± 0.01 |  |  |  | 
13 | CC(Cc1ccc(O)c(O)c1)C(C)Cc1ccc(O)c(O)c1 (centres unmarked) [NDGA, Nordihydroguaiaretic acid, reference compound] |  |  | 81 | 83 |  |  |  |  | 
14 | CCN1CCN(c2nc(NCc3cccs3)c3nccnc3n2)CC1 [Compound 20a] | 43 ± 0.7 | 92 | 4 | 11 | 20 ± 0.5 |  | 148 to 149 |  | 
15 | CN1CCN(c2nc(N)c3nc(-c4ccccc4)c(-c4ccccc4)nc3n2)CC1 [Compound 5c] |  | 100 | 10 | 6 | 0.5 ± 0.03 | 22.5 ± 0.1 | 107 to 109 |  | 
16 | COc1ccccc1CNc1nc(N2CCN(C)CC2)nc2nccnc12 [Compound 18b] |  | 90 | 13 | 20 | 21 ± 0.9 | 40 ± 0.2 |  |  | 
